# From US5057521A, “Use of bicyclic imidazole compounds for the treatment of hyperaldosteronism” (Ciba-Geigy Corporation, priority 1988, dated 1991)
# Tested on: adrenocortical cells prepared from an adrenoma of a patient suffering from Conn's syndrome
# Assay: cells
# Conditions: Homo sapiens, read-out: concentration effecting maximum inhibition of aldosterone secretion stimulated by angiotensin II
smiles,measurement,value
"N#Cc1ccc(C2CCCc3cncn32)cc1 (racemic) [5-(p-cyanophenyl)-5,6,7,8-tetrahydroimidazo[1,5-a]pyridine]",IC (maximum),0.1 µM
